Data as given in patent publication US20250034531A1, “METHOD FOR PRODUCING STEM CELLS” (priority 2021, published 2025).

Assays:
[1] = system: Vγ9 gene; conditions: genomic DNA of the iPS cells; γδT cells as positive control; FIG. 4
Procedure: iPS cells were induced in the same manner as in Example 1, except that HMBPP in the HMBPP-containing medium was changed to 5 μL of zoledronic acid (Zol, Sigma-Aldrich Co., LLC).

[2] = system: Human peripheral blood mononuclear cells; conditions: 10 nmol/L in RPMI 1640 medium with IL-2 added daily; KLF4, OCT3/4, SOX2, c-MYC by CytoTune-iPS 2.0; 14th day; FIG. 2
Procedure: Human peripheral blood mononuclear cells were put into the culture medium, and a culture medium containing about 1×10^6 monocytes was put into a 24-well plate (1st day). 1 μL of 20 μg/mL IL-2 was added to the culture medium every day. On the third day, the culture medium containing the cells was recovered from the plates, the culture medium was centrifugally separated, and the supernatant was removed. Then, 2 mL of a new HMBPP-containing medium was added to the cells, and 1 mL was put into each of two wells of a 24-well plate.
On the 6th day, the culture medium containing the cells was recovered from the plates, the culture medium was centrifugally separated, and the supernatant was removed. Then, an HMBPP-containing medium was added to the cells, and a culture medium containing 2×10^4 monocytes was put into a 96-well plate. KLF4, OCT3/4, SOX2, and c-MYC were introduced into the cells by using CytoTune-iPS 2.0 (Thermo Fisher Scientific, Inc.). The multiplicity of infection (MOI) was adjusted to be 20 to 30.
On the 7th day, the culture medium containing the cells recovered from the 96-well plate were added with a fresh HMBPP-containing medium and put into a 6-well plate. On the 8th, 10th, and 12th days, a stem cell culture medium (Stem Fit, Ajinomoto Co., Inc.) was added thereto, and thereafter, the culture medium was replaced using the stem cell culture medium.

C/C(=C\COP(=O)(O)OP(=O)(O)O)CO [HMBPP, (E)-4-hydroxy-3-methyl-but-2-enyl pyrophosphate]
rearranged Vγ9 gene having the J1/J2 gene in the established iPS cells [1]: have a Vγ9 gene that has undergone rearrangement
colonies of iPS cells formed [2]: a plurality of colonies of iPS cells has been formed
